Patent US8143257B2, “Substituted phenols as active agents inhibiting VEGF production” (PTC Therapeutics, Inc., priority 2004, dated 2012)

Test system: hypoxia-inducible endogenous VEGF expression
Experiment: Assay to evaluate effect on hypoxia-inducible endogenous VEGF expression (VEGF ELISA, HeLa cells)
Type: cell-based
Conditions: HeLa cells cultured 24-48 hours under hypoxic conditions (1% O2, 5% CO2); VEGF in conditioned media by ELISA; read-out: ELISA EC50 (effective concentration required to lower the amount of VEGF translation by 50%)
Method: Assay to Evaluate Effect on Hypoxia-Inducible Endogenous VEGF Expression
The ability of the compounds of the invention to modulate hypoxia-inducible endogenous VEGF expression is analyzed as follows. VEGF protein levels are monitored by an ELISA assay (R&D Systems). Briefly, HeLa cells are cultured for 24-48 hours under hypoxic conditions (1% O2, 5% CO2, balanced with nitrogen) in the presence or absence of a compound of the invention. The conditioned media is then assayed by ELISA, and the concentration of VEGF is calculated from the standard ELISA curve of each assay.
A dose-response analysis is performed using the ELISA assay and conditions described above. A series of, e.g., seven different concentrations are analyzed. In parallel, a dose-response cytotoxicity assay is performed using Cell Titer Glo (Promega) under the same conditions as the ELISA to ensure that the inhibition of VEGF expression is not due to the cytotoxicity. Dose-response curves are plotted using percentage inhibition versus concentration of the compound, and EC50 and CC50 values are generated for each compound with the maximal inhibition set as 100% and the minimal inhibition as 0%.
The most preferred compounds of the invention are those with μM values of 3 or less.

| SMILES | EC50 |
| --- | --- |
| O=C(Oc1ccccc1Br)N1CCc2ccccc21 [2,3-Dihydro-indole-1-carboxylic acid 2-bromo-phenyl ester] | > 30 µM |
| Cc1ccc(OC(=O)N2C(C)CCCC2C)c(Br)c1 (centres unmarked) [2,6-Dimethyl-piperidine-1-carboxylic acid 2-bromo-4-methyl-phenyl ester] | > 30 µM |
| CC1CCCC(C)N1C(=O)Oc1ccccc1Br (centres unmarked) [2,6-Dimethyl-piperidine-1-carboxylic acid 2-bromo-phenyl ester] | > 30 µM |
| Cc1ccc(OC(=O)N2CCCCC2C)c(Br)c1 (centres unmarked) [2-Methyl-piperidine-1-carboxylic acid 2-bromo-4-methyl-phenyl ester] | > 30 µM |
| CC1CC(C)CN(C(=O)Oc2ccccc2Br)C1 (centres unmarked) [3,5-Dimethyl-piperidine-1-carboxylic acid 2-bromo-phenyl ester] | > 30 µM |
| Cc1ccc2cc(OC(=O)N3CC(C)CC(C)C3)ccc2n1 (centres unmarked) [3,5-Dimethyl-piperidine-1-carboxylic acid 2-methyl-quinolin-6-yl ester] | > 30 µM |

Same assay, conditions: Homo sapiens, HeLa, read-out: ELISA EC50 (effective concentration required to lower the amount of VEGF translation by 50%)

| SMILES | EC50 |
| --- | --- |
| Cc1ccc(OC(=O)N2CCc3ccccc32)c(Br)c1 [2,3-Dihydro-indole-1-carboxylic acid 2-bromo-4-methyl-phenyl ester] | > 30 µM |
| CC1CCCCN1C(=O)Oc1ccccc1Br (centres unmarked) [2-Methyl-piperidine-1-carboxylic acid 2-bromo-phenyl ester] | > 30 µM |
| Cc1ccc2cc(OC(=O)N3CCCCC3C)ccc2n1 (centres unmarked) [2-Methyl-piperidine-1-carboxylic acid 2-methyl-quinolin-6-yl ester] | > 30 µM |
| CC1CC(C)CN(C(=O)Oc2cc3ccccc3cn2)C1 (centres unmarked) [3,5-Dimethyl-piperidine-1-carboxylic acid isoquinolin-3-yl ester] | > 30 µM |

Same assay, conditions: Homo sapiens; HeLa cells cultured 24-48 hours under hypoxic conditions (1% O2, 5% CO2); VEGF in conditioned media by ELISA; read-out: ELISA EC50 (effective concentration required to lower the amount of VEGF translation by 50%)

| SMILES | EC50 |
| --- | --- |
| O=C(Oc1ccc2ccccc2c1Br)N1CCC2(CC1)OCCO2 [1,4-Dioxa-8-aza-spiro[4.5]decane-8-carboxylic acid 1-bromo-naphthalen-2-yl ester] | 1.51 µM |
| O=C(Oc1cc(Cl)c(Cl)cc1Cl)N1CCc2ccccc21 [2,3-Dihydro-indole-1-carboxylic acid 2,4,5-trichloro-phenyl ester] | > 30 µM |
| O=C(Oc1c(Cl)cc(Cl)cc1Cl)N1CCc2ccccc21 [2,3-Dihydro-indole-1-carboxylic acid 2,4,6-trichloro-phenyl ester] | > 30 µM |
| Cc1ccc2cc(OC(=O)N3CCc4ccccc43)ccc2n1 [2,3-Dihydro-indole-1-carboxylic acid 2-methyl-quinolin-6-yl ester] | > 30 µM |
| O=C(Oc1cc2ccccc2cn1)N1CCc2ccccc21 [2,3-Dihydro-indole-1-carboxylic acid isoquinolin-3-yl ester] | > 30 µM |
| CC(=O)c1c(OC(=O)N2CCc3cccnc32)ccc2ccccc12 [2,3-Dihydro-pyrrolo[2,3-b]pyridine-1-carboxylic acid 1-acetyl-naphthalen-2-yl ester] | > 30 µM |
| O=C(Oc1ccccc1Br)N1CCc2cccnc21 [2,3-Dihydro-pyrrolo[2,3-b]pyridine-1-carboxylic acid 2-bromo-phenyl ester] | > 30 µM |
| CC1CCCC(C)N1C(=O)Oc1c(Cl)cc(Cl)cc1Cl (centres unmarked) [2,6-Dimethyl-piperidine-1-carboxylic acid 2,4,6-trichloro-phenyl ester] | > 30 µM |
| CC1CCCC(C)N1C(=O)Oc1cc2ccccc2cn1 (centres unmarked) [2,6-Dimethyl-piperidine-1-carboxylic acid isoquinolin-3-yl ester] | > 30 µM |
| CC(=O)c1c(OC(=O)N2CCCCC2C)ccc2ccccc12 (centres unmarked) [2-Methyl-piperidine-1-carboxylic acid 1-acetyl-naphthalen-2-yl ester] | > 30 µM |
| CC1CCCCN1C(=O)Oc1ccc2ccccc2c1Br (centres unmarked) [2-Methyl-piperidine-1-carboxylic acid 1-bromo-naphthalen-2-yl ester] | 0.687 µM |
| CC1CCCCN1C(=O)Oc1cc(Cl)c(Cl)cc1Cl (centres unmarked) [2-Methyl-piperidine-1-carboxylic acid 2,4,5-trichloro-phenyl ester] | 10.6 µM |
| CC1CCCCN1C(=O)Oc1c(Cl)cc(Cl)cc1Cl (centres unmarked) [2-Methyl-piperidine-1-carboxylic acid 2,4,6-trichloro-phenyl ester] | > 30 µM |
| CC1CCCCN1C(=O)Oc1cc2ccccc2cn1 (centres unmarked) [2-Methyl-piperidine-1-carboxylic acid isoquinolin-3-yl ester] | > 30 µM |
| O=C(Oc1ccc2ccccc2c1Br)N1CCc2ccccc2C1 [3,4-Dihydro-1H-isoquinoline-2-carboxylic acid 1-bromo-naphthalen-2-yl ester] | 0.174 µM |
| O=C(Oc1cc(Cl)c(Cl)cc1Cl)N1CCc2ccccc2C1 [3,4-Dihydro-1H-isoquinoline-2-carboxylic acid 2,4,5-trichloro-phenyl ester] | 18.7 µM |
| O=C(Oc1c(Cl)cc(Cl)cc1Cl)N1CCc2ccccc2C1 [3,4-Dihydro-1H-isoquinoline-2-carboxylic acid 2,4,6-trichloro-phenyl ester] | > 30 µM |
| Cc1ccc2cc(OC(=O)N3CCc4ccccc4C3)ccc2n1 [3,4-Dihydro-1H-isoquinoline-2-carboxylic acid 2-methyl-quinolin-6-yl ester] | > 30 µM |
| O=C(Oc1cc2ccccc2cn1)N1CCc2ccccc2C1 [3,4-Dihydro-1H-isoquinoline-2-carboxylic acid isoquinolin-3-yl ester] | > 30 µM |

| SMILES | EC50 |
| --- | --- |
| O=C(Oc1cc(Cl)c(Cl)cc1Cl)N1CCCc2ccccc21 [3,4-Dihydro-2H-quinoline-1-carboxylic acid 2,4,5-trichloro-phenyl ester] | 11.2 µM |
| O=C(Oc1c(Cl)cc(Cl)cc1Cl)N1CCCc2ccccc21 [3,4-Dihydro-2H-quinoline-1-carboxylic acid 2,4,6-trichloro-phenyl ester] | > 30 µM |
| Cc1ccc2cc(OC(=O)N3CCCc4ccccc43)ccc2n1 [3,4-Dihydro-2H-quinoline-1-carboxylic acid 2-methyl-quinolin-6-yl ester] | > 30 µM |
| O=C(Oc1cc2ccccc2cn1)N1CCCc2ccccc21 [3,4-Dihydro-2H-quinoline-1-carboxylic acid isoquinolin-3-yl ester] | > 30 µM |
| CC(=O)c1c(OC(=O)N2CC(C)CC(C)C2)ccc2ccccc12 (centres unmarked) [3,5-Dimethyl-piperidine-1-carboxylic acid 1-acetyl-naphthalen-2-yl ester] | 0.764 µM |
| CC1CC(C)CN(C(=O)Oc2ccc3ccccc3c2Br)C1 (centres unmarked) [3,5-Dimethyl-piperidine-1-carboxylic acid 1-bromo-naphthalen-2-yl ester] | 0.129 µM |
| CC1CC(C)CN(C(=O)Oc2ccc3ccccc3c2NS(C)(=O)=O)C1 (centres unmarked) [3,5-Dimethyl-piperidine-1-carboxylic acid 1-methanesulfonylamino-naphthalen-2-yl ester] | > 5 µM |
| CC1CC(C)CN(C(=O)Oc2cc(Cl)c(Cl)cc2Cl)C1 (centres unmarked) [3,5-Dimethyl-piperidine-1-carboxylic acid 2,4,5-trichloro-phenyl ester] | 11.2 µM |
| CC1CC(C)CN(C(=O)Oc2c(Cl)cc(Cl)cc2Cl)C1 (centres unmarked) [3,5-Dimethyl-piperidine-1-carboxylic acid 2,4,6-trichloro-phenyl ester] | > 30 µM |
| Cc1ccc(OC(=O)N2CC(C)CC(C)C2)c(Br)c1 (centres unmarked) [3,5-Dimethyl-piperidine-1-carboxylic acid 2-bromo-4-methyl-phenyl ester] | > 30 µM |
| CC1CC(C)CN(C(=O)Oc2ncc3ccccc3c2Cl)C1 (centres unmarked) [3,5-Dimethyl-piperidine-1-carboxylic acid 4-chloro-isoquinolin-3-yl ester] | > 10 µM |
| CC1CC(C)CN(C(=O)Nc2ccc3ccccc3c2Br)C1 (centres unmarked) [3,5-Dimethyl-piperidine-1-carboxylic acid (1-bromo-naphthalen-2-yl)-amide] | > 10 µM |
| CC1CC(C)CN(C(=O)Nc2ccc3ccccc3c2Cl)C1 (centres unmarked) [3,5-Dimethyl-piperidine-1-carboxylic acid (1-chloro-naphthalen-2-yl)-amide] | > 10 µM |
| CC1CC(C)CN(C(=O)Nc2ccc3ccccc3c2)C1 (centres unmarked) [3,5-Dimethyl-piperidine-1-carboxylic acid naphthalen-2-ylamide] | > 10 µM |
| COc1ccc2ccc(OC(=O)N3CCN(c4ccc(Cl)cc4)CC3)c(Br)c2c1 [4-(4-Chloro-phenyl)-piperazine-1-carboxylic acid 1-bromo-7-methoxy-naphthalen-2-yl ester] | > 10 µM |
| O=C(Nc1ccc2ccccc2c1Cl)N1CCN(c2ccc(Cl)cc2)CC1 [4-(4-Chloro-phenyl)-piperazine-1-carboxylic acid (1-chloro-naphthalen-2-yl)-amide] | > 10 µM |
| COc1ccc2ccc(OC(=O)N3CCC(C(O)(c4ccccc4)c4ccccc4)CC3)c(Br)c2c1 [4-(Hydroxy-diphenyl-methyl)-piperidine-1-carboxylic acid 1-bromo-7-methoxy-naphthalen-2-yl ester] | > 10 µM |
| O=C(Oc1ccc2ccccc2c1Br)N1CCC(C(O)(c2ccccc2)c2ccccc2)CC1 [4-(Hydroxy-diphenyl-methyl)-piperidine-1-carboxylic acid 1-bromo-naphthalen-2-yl ester] | 0.0202 µM |
